Data taken from PubChem BioAssay AID2384 (Southern Research Specialized Biocontainment Screening …, 2010).

What follows are compounds tested on S. typhi GFP reporter counter-screen, fluorescence, 4 h (assay: inhibitors in S. typhi counter-screen strain, dose response, counter-screen for PhoP regulon inhibitor project, fluorescence, 4 h (AID 2384)).

| SMILES | IC50 |
| --- | --- |
| CC(C)[C@@H]1CC[C@@H](C)C[C@H]1OC(=O)C[n+]1cc(-c2ccc(Cl)cc2)n2c1CCCCC2 | 74.9 µM |
| COC(=O)C1C(O)C(C)C(O)C(C)/C=C\C=C(/C)C(=O)Nc2c(C)c(OC(C)=O)c3c(c2O)C(=O)C(C)=C2OCOC(=C23)/C(C)=C/C(C)(O)C(O)C(C)C1O (stereo unspecified) | 15.2 µM |
| CCCCCCCCCCn1c2c(c(=N)c3c1CCC3)CCC2 | 9.77 µM |
| CCn1cc(C(=O)O)c(=O)c2cc(F)c(N3CCN(C(=S)NC(=O)c4cccc(C)c4)CC3)cc21 | 37.8 µM |
| O=C(N/N=C/c1cc(Cl)cc(Cl)c1O)c1ccncc1 | 33.7 µM |
| O=C(NC(=S)NNC(=O)c1cccs1)c1ccco1 | 52.3 µM |
| Cc1ccc2c(c1)C1CN(C)CCC1N2C(=O)COc1ccccc1F (stereo unspecified) | 110 µM |
| COc1cc(CNCCc2ccccc2)cc(Cl)c1OCc1ccccc1 | 37.6 µM |
| CC1CCN(CCCCOc2ccc(Cl)cc2)CC1 | 136 µM |
| COc1ccc(Nc2c3ccccc3nc3ccccc23)cc1 | 23.7 µM |
| CN(C)CCCN1c2ccccc2Sc2ccccc21 | 40.1 µM |
| O=[N+]([O-])c1cccc2c(N3CCCC3)ccnc12 | 32.8 µM |
| O=Nc1ccc(O)c2ncccc12 | 20 µM |
| CO[C@@]1(NC(=O)Cc2cccs2)C(=O)N2C(C(=O)O)=C(COC(N)=O)CS[C@@H]21 | 7.08 µM |
| O=[N+]([O-])c1cc(Cl)c2cccnc2c1O | 4.25 µM |
| Oc1c(CN2CCCCC2)cc(Br)c2cccnc12 | 15.7 µM |
| O=C(Nc1ccc2nc(-c3ccc(Br)o3)[nH]c2c1)c1cccs1 | 15 µM |
| O=c1c2c([nH]c3ccccc13)CCCCC2 | 113 µM |
| Cc1cc(C2CCCCC2)n(O)c(=O)c1 | 13.7 µM |

| SMILES | IC50 |
| --- | --- |
| CSc1ccc2c(c1)C(N1CCN(C)CC1)Cc1ccccc1S2 (stereo unspecified) | 27.5 µM |
| C=CCOc1ccc(Cl)cc1CNC1CCCC1 | 102 µM |
| c1ccc(CNc2nc(N3CCN(Cc4ccccc4)CC3)nc3ccccc23)cc1 | 25.4 µM |
| Oc1c(Cl)cc(CN2CCCCC2)c2cccnc12 | 9.15 µM |
| COc1ccccc1C(C[N+](=O)[O-])c1c(N)n(C)c(=O)n(C)c1=O (stereo unspecified) | 38.5 µM |
| Cc1ccc(NC(=O)c2ccccc2)s1 | 110 µM |
| Cc1cc(NC(=O)c2ccccc2)sc1C | 79.8 µM |
| O=C(NNC(=S)NC(=O)c1ccccc1)c1ccc(O)cc1 | 51 µM |
| CCCCCCCCCCCCCCCC[N+](C)(C)C | 19.3 µM |
| CC(NCc1ccc(Cl)cc1)C(O)c1ccccc1 (stereo unspecified) | 42.8 µM |
| O=C(O)c1cccc(N2C(=O)CSC2=S)c1 | 68 µM |
| CC(=O)NC(c1cccc([N+](=O)[O-])c1)c1ccc2cccnc2c1O (stereo unspecified) | 101 µM |
| O=[N+]([O-])c1cc(F)c2cccnc2c1O | 7.36 µM |
| CCN1CCN(C(=O)c2cc3cc(Cl)ccc3[nH]2)CC1 | 30.4 µM |
| CCCCOc1ccc(NC2=NC3(CCCC3)N=C(N)N2)cc1 | 94.8 µM |
| O=C(Cn1nc(C(F)F)cc1C(F)F)NNC(=S)Nc1ccc([N+](=O)[O-])cc1 | 69.1 µM |
| O=C(NC1CCCCC1)c1ccc([N+](=O)[O-])o1 | 119 µM |
| NC1=NC[C@H](Cc2ccccc2)N1CCCCC1CCCCC1 | 19.4 µM |
| COc1ccc(NC2=NC3(CCCCC3)N=C(N)N2)cc1 | 138 µM |

| SMILES | IC50 |
| --- | --- |
| Cc1ccc2nc(/C(C#N)=C\c3ccc([N+](=O)[O-])o3)[nH]c2c1 | 95.9 µM |
| O/N=C/c1ccc(OCc2ccccc2)c(Cl)c1 | 103 µM |
| CC(Nc1nc(N2CCCCC2)nc2ccccc12)c1ccccc1 (stereo unspecified) | 133 µM |
| CCCCN(CCCC)C(=O)c1cn(CC)c2cc(N3CCN(C)CC3)c(F)cc2c1=O | 15.7 µM |
| C#CCOCCOCCOCCNc1nc(N2CCN(C(=O)CCCCCCCCCCNC(=O)[C@H](CCCCN)n3cc(CCO)nn3)CC2)nc(N2CCN(C(=O)CCCCCCCCCCNC(=O)[C@H](CCCCN)n3cc(C[C@@H](C)CC)nn3)CC2)n1 | 20 µM |
| CCCCCOc1ccc(CSC(=N)N)cc1[N+](=O)[O-] | 30.4 µM |
| Cc1c(CCOC(=O)C2C3CC4CC(C3)CC2C4)sc[n+]1CC(=O)c1ccc(Br)cc1 (stereo unspecified) | 25.7 µM |
| C#CCOCCOCCOCCNc1nc(N2CCN(C(=O)C(Cc3ccc(O)cc3)n3cc(C(N)CC(C)C)nn3)CC2)nc(N2CCN(C(=O)C(Cc3cc4ccccc4[nH]3)n3cc(C(N)Cc4ccc(O)cc4)nn3)CC2)n1 (stereo unspecified) | 37.7 µM |
| CC1CCC(C(C)C)C(OC(=O)Cn2c(-c3ccc(Br)cc3)[n+](C)c3ccccc32)C1 (stereo unspecified) | 73.6 µM |
| CCCCCCCCCCOC(=O)Cn1c(COc2cccc(OC)c2)[n+](C)c2ccccc21 | 10.2 µM |
| Cc1cc(CSC(=N)N)c(CSC(=N)N)cc1C | 50.1 µM |
| COc1cccc(NC2=NC3(CCCCC3)N=C(N)N2)c1 | 148 µM |
| COc1ccc2nc(N(CCN(C)C)C(=O)/C=C/c3cccs3)sc2c1 | 65.8 µM |
| O=C(CCN1CCOCC1)c1ccc(Br)cc1 | 72.5 µM |
| Cc1nonc1C(=O)N/N=C/c1ccc(O)cc1O | 20.3 µM |
| Nc1ncn([C@@H]2O[C@H](CO)[C@@H](O)[C@H]2O)c(=O)n1 | 46.2 µM |
| C#CCOCCOCCOCCNc1nc(N2CCN(C(=O)CCCCCCCCCCNC(=O)[C@H]([C@@H](C)CC)n3cc(CCCCN=C(N)N)nn3)CC2)nc(N2CCN(C(=O)CCCCCCCCCCNC(=O)[C@H](CO)n3cc(CCCCCN)nn3)CC2)n1 | 35.2 µM |
| O=C1OCCN1/N=C/c1ccc([N+](=O)[O-])o1 | 28.2 µM |
